Results: US11466044B2 (WAYNE STATE UNIVERSITY, priority 2017, dated 2022)
pIC50: −log10 of the molar value. In brackets after ≈: the same amount, converted by molar mass. Like-named read-outs stand apart in the source and are kept apart here.

Assays:
E coli wild type = assay: MIC by broth microdilution, wild type E coli; format: cell-based; conditions: for MIC: Escherichia coli
[1] = tested on: E coli carrying specific resistance determinants; assay: MIC by broth microdilution, E coli carrying specific resistance determinants; format: cell-based; conditions: for MIC APH(3)-VI / MIC APH(3′)-I / MIC APH(3′)-II / MIC APH(3′)-III: Table 3 (Example 1); for MIC: Escherichia coli
[2] = tested on: wild type bacterial ribosomes; assay: in-vitro translation assay, bacterial ribosomes; format: biochemical; conditions: bacterial ribosome; Table 3 (Example 1); read-out: IC50 Bac
Description: (§1) The antiribosomal activity of these compounds was investigated with cell-free translation assays using both wild type bacterial ribosomes and hybrid ribosomes carrying eukaryotic decoding A sites enabling the prediction of selectivity.

[3] = tested on: mitochondrial ribosome (human chimeric); format: biochemical; conditions: mitochondrial, read-out: IC50 Mit
Description: as §1

[4] = tested on: cytosolic ribosome (human chimeric); format: biochemical; conditions: cytosolic, read-out: IC50 Cyt
Description: as §1

[5] = ATCC25922, strain AG212 E. coli (ATCC25922), read-out: MIC AG212 E. coli
[6] = clinical isolate AG160 WT, Table 2 (Example 4), read-out: MIC AG160 E. coli WT
[7] = engineered strain pH430 WT, Table 2 (Example 4), read-out: MIC pH430 E. coli WT
[8] = read-out: MIC AG037 E. coli APH(3′)-III
[9] = read-out: MIC WT, WT, Table 3 (Example 2)

With NC[C@H]1O[C@H](O[C@H]2[C@H](O[C@@H]3O[C@H](CN)[C@@H](O)[C@H]3O)[C@@H](O)[C@H](N)C[C@@H]2N)[C@H](N)[C@@H](O)[C@@H]1O [Compound 048] the “MIC WT” value (E coli wild type; WT, Table 3 (Example 1)) was 2 to 4 µg/mL, the “MIC APH(3)-VI” value [1] was 64 µg/mL (≈ 141 µM) and the “MIC APH(3′)-I” value [1] was greater than 64 µg/mL. The “MIC APH(3′)-II” value [1] was greater than 64 µg/mL, the “MIC APH(3′)-III” value [1] was greater than 64 µg/mL and the pIC50 [2] was 7.05. For the same compound, the pIC50 ([3]; Table 3 (Example 1)) was 4.12.
Work on NC[C@@H]1O[C@H](O[C@@H]2C(O)[C@H](O[C@@H]3C(O)[C@H](N)CC(N)[C@H]3O[C@H]3OC4C(O)CCO[C@H]4[C@H](O)C3N)O[C@@H]2CO)C(N)C(O)[C@@H]1O (stereo partly shown) [Compound 211] yielded an MIC (E coli wild type; [5]) of 32 to 64 µg/mL (≈ 49.9 to 99.7 µM).
NC[C@@H]1O[C@H](O[C@H]2[C@@H](O)[C@H](O[C@@H]3[C@@H](O)[C@H](N)C[C@H](N)[C@H]3O[C@H]3O[C@H](CN)[C@@H](O)C[C@H]3N)O[C@@H]2CO)[C@H](N)[C@@H](O)[C@@H]1O [Compound 140] was tested, and the “MIC WT” value (E coli wild type; WT, Table 3 (Example 1)) was 1 µg/mL (≈ 1.67 µM), the “MIC AG160 E. coli WT” value (E coli wild type; clinical isolate AG160 WT, Table 2 (Example 4)) was 1 µg/mL (≈ 1.67 µM) and the “MIC pH430 E. coli WT” value (E coli wild type; engineered strain pH430 WT, Table 2 (Example 4)) was 1 μg/ml. The “MIC APH(3)-VI” value [1] was 1 µg/mL (≈ 1.67 µM), the “MIC APH(3′)-I” value [1] was greater than 32 µg/mL and the “MIC APH(3′)-II” value [1] was 1 µg/mL (≈ 1.67 µM). For the same compound, the “MIC APH(3′)-III” value [1] was 32 µg/mL (≈ 53.5 µM), the “MIC AG163 E. coli APH(3′)-I” value ([1]; clinical isolate AG163 APH(3′)-I, Table 2 (Example 4)) was 64 µg/mL (≈ 107 µM) and the “MIC AG166 E. coli APH(3′)-II” value ([1]; clinical isolate AG166 APH(3′)-II, Table 2 (Example 4)) was 1 µg/mL (≈ 1.67 µM). For the same compound, the “MIC AG037 E. coli APH(3′)-III” value ([1]; engineered strain AG037 APH(3′)-III, Table 2 (Example 4)) was 32 µg/mL (≈ 53.5 µM), the “MIC pH421 E. coli APH(3′)-I” value ([1]; engineered strain pH421 APH(3′)-I, Table 2 (Example 4)) was greater than 32 μg/ml and the “MIC pH422 E. coli APH(3′)-II” value ([1]; engineered strain pH422 APH(3′)-II, Table 2 (Example 4)) was 1 μg/ml. The “MIC pH423 E. coli APH(3′)-VI” value ([1]; engineered strain pH423 APH(3′)-VI, Table 2 (Example 4)) was 1 μg/ml, the pIC50 [2] was 7.40 and the pIC50 ([4]; Table 3 (Example 1)) was 4.18. It also gave a pIC50 ([3]; Table 3 (Example 1)) of 5.34.
Compound NCC1OC(OC2C(N)CC(N)C(O)C2OC2OC(CNC=O)C(O)C2O)C(N)C(O)C1O (stereo not shown) [Compound 130] has an MIC (E coli wild type; WT, Table 3 (Example 1), read-out: MIC WT) of 4 µg/mL (≈ 8.31 µM), an MIC (E coli wild type; [6]) of 16 µg/mL (≈ 33.2 µM) and an MIC (E coli wild type; [7]) of 4 µg/mL (≈ 8.31 µM). The MIC [1, 8] was greater than 128 µg/mL, the MIC ([1]; read-out: MIC AG163 E. coli APH(3′)-I) was greater than 128 µg/mL and the MIC ([1]; read-out: MIC AG166 E. coli APH(3′)-II) was greater than 128 µg/mL. It also gave an MIC ([1]; read-out: MIC APH(3)-VI) greater than 64 µg/mL, an MIC ([1]; read-out: MIC APH(3′)-I) greater than 64 µg/mL and an MIC ([1]; read-out: MIC APH(3′)-II) greater than 64 µg/mL. It also gave an MIC ([1]; read-out: MIC APH(3′)-III) greater than 64 µg/mL, an MIC ([1]; read-out: MIC pH421 E. coli APH(3′)-I) greater than 64 µg/mL and an MIC ([1]; read-out: MIC pH422 E. coli APH(3′)-II) greater than 64 µg/mL. The MIC ([1]; read-out: MIC pH423 E. coli APH(3′)-VI) was greater than 64 µg/mL, the pIC50 [2] was 6.62 and the pIC50 ([4]; Table 3 (Example 1)) was 3.44. The pIC50 ([3]; Table 3 (Example 1)) was 3.44.
With NCC1O[C@H](O[C@@H]2C(O)[C@H](O[C@@H]3C(O)[C@H](N)CC(N)[C@H]3O[C@H]3OC4C(O)CO[C@H]4[C@H](O)C3N)O[C@@H]2CO)C(N)[C@H](O)[C@@H]1O (stereo partly shown) [DC-204] the MIC (E coli wild type; [9]) was 8 µg/mL (≈ 12.7 µM), the MIC ([1]; read-out: MIC AAC(6′)) was 16 µg/mL (≈ 25.5 µM) and the MIC ([1]; read-out: MIC ANT(4′)) was 4 to 8 µg/mL (≈ 6.37 to 12.7 µM). The MIC ([1]; read-out: MIC APH(3′)-II) was 16 to 32 µg/mL (≈ 25.5 to 51 µM), the MIC ([1]; read-out: MIC APH(3′)-VI) was 16 µg/mL (≈ 25.5 µM) and the pIC50 ([4]; Table 3 (Example 2)) was 3.88. For the same compound, the pIC50 ([3]; Table 3 (Example 2)) was 6.70.
Compound CC(=O)NC[C@H]1O[C@@H](O[C@@H]2C(O)[C@H](N)CC(N)[C@H]2O[C@H]2OC(CN)[C@@H](O)[C@H](O)C2N)C(O)[C@H]1O (stereo partly shown) [Compound 129] has an MIC (E coli wild type; [6]) of 64 µg/mL (≈ 129 µM), an MIC (E coli wild type; [7]) of 32 µg/mL (≈ 64.6 µM) and an MIC [1, 8] greater than 64 µg/mL.
CC[C@@H]1C(CO)O[C@H](O[C@@H]2C(N)C[C@@H](N)C(O)[C@H]2O[C@@H]2O[C@H](CO)[C@H](O[C@H]3OC(CN)[C@@H](O)C(O)C3N)C2O)[C@@H](N)C1O (stereo partly shown) [Compound 206] showed an MIC (E coli wild type; [5]) of 8 µg/mL (≈ 12.7 µM).
For NC[C@H]1O[C@H](O[C@H]2[C@H](O[C@@H]3O[C@H](CO)[C@@H](O)[C@H]3O)[C@@H](O)[C@H](N)C[C@@H]2N)[C@H](N)C[C@@H]1O [Compound 047], the “MIC WT” value (E coli wild type; WT, Table 3 (Example 1)) was 2 to 4 µg/mL, the “MIC APH(3)-VI” value [1] was 4 µg/mL (≈ 9.12 µM) and the “MIC APH(3′)-I” value [1] was greater than 64 µg/mL. For the same compound, the “MIC APH(3′)-II” value [1] was 2 to 4 µg/mL, the “MIC APH(3′)-III” value [1] was greater than 64 µg/mL and the pIC50 [2] was 7.00. It also gave a pIC50 ([4]; Table 3 (Example 1)) of 3.53 and a pIC50 ([3]; Table 3 (Example 1)) of 3.49.
For NC[C@@H]1O[C@H](O[C@@H]2C(O)[C@H](O[C@@H]3C(O)[C@H](N)CC(N)[C@H]3O[C@H]3OC4C(O)CCCO[C@H]4[C@H](O)C3N)O[C@@H]2CO)C(N)C(O)[C@@H]1O (stereo partly shown) [DC-196], the MIC (E coli wild type; [9]) was 4 µg/mL (≈ 6.1 µM), the MIC ([1]; read-out: MIC AAC(6′)) was 4 µg/mL (≈ 6.1 µM) and the MIC ([1]; read-out: MIC ANT(4′)) was 2 µg/mL (≈ 3.05 µM). It also gave an MIC ([1]; read-out: MIC APH(3′)-II) of 16 µg/mL (≈ 24.4 µM), an MIC ([1]; read-out: MIC APH(3′)-VI) of 16 µg/mL (≈ 24.4 µM) and a pIC50 ([4]; Table 3 (Example 2)) of 3.70. It also gave a pIC50 ([3]; Table 3 (Example 2)) of 6.85.
In the case of NCC1O[C@H](O[C@@H]2C(O)[C@H](O[C@@H]3C(O)[C@H](N)CC(N)[C@H]3O[C@H]3OC4C(O)CO[C@H]4[C@H](O)C3N)O[C@@H]2CO)C(N)[C@H](O)[C@@H]1O (stereo partly shown) [Compound 203], the MIC (E coli wild type; [5]) was 32 µg/mL (≈ 51 µM).
